Where two headings read alike, the source gives them in different places. Positions of bridges follow the written chain, without caps; N, C: chain ends. Non-standard residues stand in square brackets, D forms with d. Residues, ends and D or L forms follow the SMILES beside them. Groups on a side chain read outwards from the residue. *: point of attachment. DOTA = O=C(O)CN1CCN(CC(=O)O)CCN(CC(=O)*)CCN(CC(=O)O)CC1; 2Nal = N[C@@H](Cc1ccc2ccccc2c1)C(=O)O; Lys(iPr) = CC(C)NCCCC[C@H](N)C(=O)O
Experiments:
[1] = Biodistribution in Z138 tumor-bearing mice; type: in vivo; conditions: male, mouse, iv, total radioactivity
Procedure: (§1) For Daudi, Z138, GRANTA519 and Jeko1 xenografts, male NOD.Cg-Rag1^tm1MomII2rg^tm1Wjl/SzJ (NRG) mice were subcutaneously inoculated on the left flank with 5×10^6 cells (100 μL; 1:1 ratio of PBS/Matrigel) and tumors were grown to a size of 200-500 mm^3. For PC-3 xenografts, male NOD.Cg-Rag1^tm1MomII2rg^tm1Wjl/SzJ (NRG) mice were subcutaneously inoculated on the left flank with 5×10^6 PC-3 cells (100 μL; 1:1 ratio of PBS/Matrigel) and tumors were grown to a size of 200-400 mm^3.
(§2) The mice were euthanized via CO2 inhalation while anesthetized with isoflurane. Tissues were harvested, washed in PBS, blotted dry, weighed, and measured on a Hidex AMG Automatic Gamma Counter.

[2] = test system: Z138 mantle cell lymphoma xenografts; assay: Biodistribution in Z138 tumor-bearing mice; type: in vivo
Procedure: as §1, §2

[3] = NOD.Cg-Rag1^tm1MomII2rg^tm1Wjl/SzJ (NRG), blood, read-out: Biodistribution Blood
[4] = NOD.Cg-Rag1^tm1MomII2rg^tm1Wjl/SzJ (NRG), bone, read-out: Biodistribution Bone
[5] = NOD.Cg-Rag1^tm1MomII2rg^tm1Wjl/SzJ (NRG), brain, read-out: Biodistribution Brain
[6] = NOD.Cg-Rag1^tm1MomII2rg^tm1Wjl/SzJ (NRG), fat, read-out: Biodistribution Fat
[7] = NOD.Cg-Rag1^tm1MomII2rg^tm1Wjl/SzJ (NRG), intestine, read-out: Biodistribution Intestine
[8] = NOD.Cg-Rag1^tm1MomII2rg^tm1Wjl/SzJ (NRG), stomach, read-out: Biodistribution Stomach
[9] = NOD.Cg-Rag1^tm1MomII2rg^tm1Wjl/SzJ (NRG), testes, read-out: Biodistribution Testes
[10] = NOD.Cg-Rag1^tm1MomII2rg^tm1Wjl/SzJ (NRG), tumour (Z138 xenograft), read-out: Biodistribution Z138 (tumour)
[11] = NOD.Cg-Rag1tm1Mom Il2rgtm1Wjl/SzJ (NRG), adrenals, read-out: Biodistribution Adrenals
[12] = NOD.Cg-Rag1tm1Mom Il2rgtm1Wjl/SzJ (NRG), heart, read-out: Biodistribution Heart
[13] = NOD.Cg-Rag1tm1Mom Il2rgtm1Wjl/SzJ (NRG), kidney, read-out: Biodistribution Kidney
[14] = NOD.Cg-Rag1tm1Mom Il2rgtm1Wjl/SzJ (NRG), liver, read-out: Biodistribution Liver
[15] = NOD.Cg-Rag1tm1Mom Il2rgtm1Wjl/SzJ (NRG), lung, read-out: Biodistribution Lung
[16] = NOD.Cg-Rag1tm1Mom Il2rgtm1Wjl/SzJ (NRG), muscle, read-out: Biodistribution Muscle
[17] = NOD.Cg-Rag1tm1Mom Il2rgtm1Wjl/SzJ (NRG), pancreas, read-out: Biodistribution Pancreas
[18] = NOD.Cg-Rag1tm1Mom Il2rgtm1Wjl/SzJ (NRG), spleen, read-out: Biodistribution Spleen

## CC(C)NCCCC[C@@H]1NC(=O)[C@H](Cc2ccc(O)cc2)NC(=O)[C@H](Cc2ccccc2)NC(=O)CC[C@H](C(=O)N[C@@H](CCCCNC(C)C)C(=O)N[C@@H](CCCCNC(=O)[C@H](CCC(=O)O)NC(=O)[C@H](CCC(=O)O)NC(=O)[C@H](CCC(=O)O)NC(=O)CN2CCN(CC(=O)O)CCN(CC(=O)O)CCN(CC(=O)O)CC2)C(N)=O)NC(=O)CNC(=O)[C@H](Cc2ccc3ccccc3c2)NC(=O)[C@@H](CCCNC(=N)N)NC1=O [[^177Lu]Lu-BL02, metal not drawn] (FY[Lys(iPr)][dR][2Nal]G[dE][Lys(iPr)]K([Glu-Glu-Glu-DOTA])-NH2; lactam N-7)
[1]; NOD.Cg-Rag1^tm1MomII2rg^tm1Wjl/SzJ (NRG), blood, 1 h, read-out: Biodistribution Blood
  tissue uptake at 1 h: 0.44 %ID/g
[1]; [3]
  tissue uptake at 4 h: 0.03 %ID/g
  tissue uptake at 24 h: 0.01 %ID/g
  tissue uptake at 72 h: 0.007 %ID/g
[1]; NOD.Cg-Rag1^tm1MomII2rg^tm1Wjl/SzJ (NRG), blood, with LY2510924 7.5 μg i.p. 15 min before radiotracer, 1 h blocked, read-out: Biodistribution Blood
  tissue uptake at 1 h: 2.06 %ID/g
[1]; NOD.Cg-Rag1^tm1MomII2rg^tm1Wjl/SzJ (NRG), bone, 1 h, read-out: Biodistribution Bone
  tissue uptake at 1 h: 0.25 %ID/g
[1]; [4]
  tissue uptake at 4 h: 0.11 %ID/g
  tissue uptake at 24 h: 0.085 %ID/g
  tissue uptake at 72 h: 0.053 %ID/g
[1]; NOD.Cg-Rag1^tm1MomII2rg^tm1Wjl/SzJ (NRG), bone, 1 h blocked, read-out: Biodistribution Bone
  tissue uptake at 1 h: 0.49 %ID/g
[1]; NOD.Cg-Rag1^tm1MomII2rg^tm1Wjl/SzJ (NRG), brain, 1 h, read-out: Biodistribution Brain
  tissue uptake at 1 h: 0.02 %ID/g
[1]; NOD.Cg-Rag1^tm1MomII2rg^tm1Wjl/SzJ (NRG), brain, 1 h blocked, read-out: Biodistribution Brain
  tissue uptake at 1 h: 0.04 %ID/g
[1]; [5]
  tissue uptake at 4 h: 0.01 %ID/g
  tissue uptake at 24 h: 0.003 %ID/g
  tissue uptake at 72 h: 0.001 %ID/g
[1]; NOD.Cg-Rag1^tm1MomII2rg^tm1Wjl/SzJ (NRG), fat, 1 h, read-out: Biodistribution Fat
  tissue uptake at 1 h: 0.07 %ID/g
[1]; [6]
  tissue uptake at 4 h: 0.03 %ID/g
  tissue uptake at 24 h: 0.011 %ID/g
  tissue uptake at 72 h: 0.008 %ID/g
[1]; NOD.Cg-Rag1^tm1MomII2rg^tm1Wjl/SzJ (NRG), fat, with LY2510924 7.5 μg i.p. 15 min before radiotracer, 1 h blocked, read-out: Biodistribution Fat
  tissue uptake at 1 h: 0.19 %ID/g
[1]; NOD.Cg-Rag1^tm1MomII2rg^tm1Wjl/SzJ (NRG), intestine, 1 h, read-out: Biodistribution Intestine
  tissue uptake at 1 h: 0.27 %ID/g
[1]; NOD.Cg-Rag1^tm1MomII2rg^tm1Wjl/SzJ (NRG), intestine, 1 h blocked, read-out: Biodistribution Intestine
  tissue uptake at 1 h: 0.75 %ID/g
[1]; [7]
  tissue uptake at 4 h: 0.09 %ID/g
  tissue uptake at 24 h: 0.126 %ID/g
  tissue uptake at 72 h: 0.023 %ID/g
[1]; NOD.Cg-Rag1^tm1MomII2rg^tm1Wjl/SzJ (NRG), stomach, 1 h, read-out: Biodistribution Stomach
  tissue uptake at 1 h: 0.12 %ID/g
[1]; NOD.Cg-Rag1^tm1MomII2rg^tm1Wjl/SzJ (NRG), stomach, 1 h blocked, read-out: Biodistribution Stomach
  tissue uptake at 1 h: 0.2 %ID/g
[1]; [8]
  tissue uptake at 4 h: 0.07 %ID/g
  tissue uptake at 24 h: 0.052 %ID/g
  tissue uptake at 72 h: 0.022 %ID/g
[1]; NOD.Cg-Rag1^tm1MomII2rg^tm1Wjl/SzJ (NRG), testes, 1 h, read-out: Biodistribution Testes
  tissue uptake at 1 h: 0.18 %ID/g
[1]; [9]
  tissue uptake at 4 h: 0.04 %ID/g
  tissue uptake at 24 h: 0.032 %ID/g
  tissue uptake at 72 h: 0.029 %ID/g
[1]; NOD.Cg-Rag1^tm1MomII2rg^tm1Wjl/SzJ (NRG), testes, with LY2510924 7.5 μg i.p. 15 min before radiotracer, 1 h blocked, read-out: Biodistribution Testes
  tissue uptake at 1 h: 0.39 %ID/g
[1]; NOD.Cg-Rag1^tm1MomII2rg^tm1Wjl/SzJ (NRG), tumour (Z138 xenograft), 1 h, read-out: Biodistribution Z138 (tumour)
  tissue uptake at 1 h: 17.2 %ID/g
[1]; NOD.Cg-Rag1^tm1MomII2rg^tm1Wjl/SzJ (NRG), tumour (Z138 xenograft), 1 h blocked, read-out: Biodistribution Z138 (tumour)
  tissue uptake at 1 h: 3.75 %ID/g
[1]; [10]
  tissue uptake at 4 h: 15.6 %ID/g
  tissue uptake at 24 h: 8.79 %ID/g
  tissue uptake at 72 h: 3.57 %ID/g
[1]; NOD.Cg-Rag1tm1Mom Il2rgtm1Wjl/SzJ (NRG), adrenals, 1 h, read-out: Biodistribution Adrenals
  tissue uptake at 1 h: 0.46 %ID/g
[1]; NOD.Cg-Rag1tm1Mom Il2rgtm1Wjl/SzJ (NRG), adrenals, 1 h blocked, read-out: Biodistribution Adrenals
  tissue uptake at 1 h: 0.47 %ID/g
[1]; [11]
  tissue uptake at 4 h: 0.13 %ID/g
  tissue uptake at 24 h: 0.117 %ID/g
  tissue uptake at 72 h: 0.073 %ID/g
[1]; NOD.Cg-Rag1tm1Mom Il2rgtm1Wjl/SzJ (NRG), heart, 1 h, read-out: Biodistribution Heart
  tissue uptake at 1 h: 0.18 %ID/g
[1]; NOD.Cg-Rag1tm1Mom Il2rgtm1Wjl/SzJ (NRG), heart, 1 h blocked, read-out: Biodistribution Heart
  tissue uptake at 1 h: 0.46 %ID/g
[1]; [12]
  tissue uptake at 4 h: 0.05 %ID/g
  tissue uptake at 24 h: 0.035 %ID/g
  tissue uptake at 72 h: 0.022 %ID/g
[1]; NOD.Cg-Rag1tm1Mom Il2rgtm1Wjl/SzJ (NRG), kidney, 1 h, read-out: Biodistribution Kidney
  tissue uptake at 1 h: 3.87 %ID/g
[1]; NOD.Cg-Rag1tm1Mom Il2rgtm1Wjl/SzJ (NRG), kidney, 1 h blocked, read-out: Biodistribution Kidney
  tissue uptake at 1 h: 10.9 %ID/g
[1]; [13]
  tissue uptake at 4 h: 3.27 %ID/g
  tissue uptake at 24 h: 1.43 %ID/g
  tissue uptake at 72 h: 0.56 %ID/g
[1]; NOD.Cg-Rag1tm1Mom Il2rgtm1Wjl/SzJ (NRG), liver, 1 h, read-out: Biodistribution Liver
  tissue uptake at 1 h: 0.93 %ID/g
[1]; NOD.Cg-Rag1tm1Mom Il2rgtm1Wjl/SzJ (NRG), liver, 1 h blocked, read-out: Biodistribution Liver
  tissue uptake at 1 h: 0.99 %ID/g
[1]; [14]
  tissue uptake at 4 h: 0.92 %ID/g
  tissue uptake at 24 h: 0.703 %ID/g
  tissue uptake at 72 h: 0.436 %ID/g
[1]; NOD.Cg-Rag1tm1Mom Il2rgtm1Wjl/SzJ (NRG), lung, 1 h, read-out: Biodistribution Lung
  tissue uptake at 1 h: 0.83 %ID/g
[1]; NOD.Cg-Rag1tm1Mom Il2rgtm1Wjl/SzJ (NRG), lung, 1 h blocked, read-out: Biodistribution Lung
  tissue uptake at 1 h: 1.57 %ID/g
[1]; [15]
  tissue uptake at 4 h: 0.26 %ID/g
  tissue uptake at 24 h: 0.176 %ID/g
  tissue uptake at 72 h: 0.184 %ID/g
[1]; NOD.Cg-Rag1tm1Mom Il2rgtm1Wjl/SzJ (NRG), muscle, 1 h, read-out: Biodistribution Muscle
  tissue uptake at 1 h: 0.1 %ID/g
[1]; NOD.Cg-Rag1tm1Mom Il2rgtm1Wjl/SzJ (NRG), muscle, 1 h blocked, read-out: Biodistribution Muscle
  tissue uptake at 1 h: 0.45 %ID/g
[1]; [16]
  tissue uptake at 4 h: 0.03 %ID/g
  tissue uptake at 24 h: 0.019 %ID/g
  tissue uptake at 72 h: 0.01 %ID/g
[1]; NOD.Cg-Rag1tm1Mom Il2rgtm1Wjl/SzJ (NRG), pancreas, 1 h, read-out: Biodistribution Pancreas
  tissue uptake at 1 h: 0.14 %ID/g
[1]; NOD.Cg-Rag1tm1Mom Il2rgtm1Wjl/SzJ (NRG), pancreas, 1 h blocked, read-out: Biodistribution Pancreas
  tissue uptake at 1 h: 0.31 %ID/g
[1]; [17]
  tissue uptake at 4 h: 0.04 %ID/g
  tissue uptake at 24 h: 0.034 %ID/g
  tissue uptake at 72 h: 0.016 %ID/g
[1]; NOD.Cg-Rag1tm1Mom Il2rgtm1Wjl/SzJ (NRG), spleen, 1 h, read-out: Biodistribution Spleen
  tissue uptake at 1 h: 0.56 %ID/g
[1]; NOD.Cg-Rag1tm1Mom Il2rgtm1Wjl/SzJ (NRG), spleen, 1 h blocked, read-out: Biodistribution Spleen
  tissue uptake at 1 h: 0.56 %ID/g
[1]; [18]
  tissue uptake at 4 h: 0.33 %ID/g
  tissue uptake at 24 h: 0.277 %ID/g
  tissue uptake at 72 h: 0.288 %ID/g
[2]; 1 h
  Ratio Tumour:Blood: 38.98
  Ratio Tumour:Bone: 74.82
  Ratio Tumour:Liver: 18.53
  Ratio Tumour:Lung: 21.08
  Ratio Tumour:Muscle: 166.59
  Ratio Tumour:Spleen: 33.05
[2]; 1 h blocked
  Ratio Tumour:Blood: 2.74
  Ratio Tumour:Bone: 9.53
  Ratio Tumour:Liver: 3.84
  Ratio Tumour:Lung: 2.75
  Ratio Tumour:Muscle: 13.22
  Ratio Tumour:Spleen: 6.87
[2]; 4 h
  Ratio Tumour:Blood: 627.62
  Ratio Tumour:Bone: 145.11
  Ratio Tumour:Liver: 16.93
  Ratio Tumour:Lung: 60.62
  Ratio Tumour:Muscle: 503.09
  Ratio Tumour:Spleen: 49.43
[2]; 24 h
  Ratio Tumour:Blood: 873.49
  Ratio Tumour:Bone: 109.48
  Ratio Tumour:Liver: 12.51
  Ratio Tumour:Lung: 52.72
  Ratio Tumour:Muscle: 463.22
  Ratio Tumour:Spleen: 31.90
[2]; 72 h
  Ratio Tumour:Blood: 613.24
